This is an account of results in ChEMBL document CHEMBL4028888, “Design of MC1R Selective γ-MSH Analogues with Canonical Amino Acids Leads to Potency and Pigmentation” (J Med Chem, 2017).

Activity calls are given as the source filed them. The calls are words filed in the database; no cut-off is given here. Where a SMILES comes first, the peptide text is derived from it.

The target in data set [1] is T1, Melanocortin receptor 5 (Homo sapiens, UniProt P33032). Briefly: Agonist activity at human MC5R expressed in HEK293 cells assessed as induction of intracellular cAMP accumulation at 10 uM after 3 mins relative to MT-2. It is filed as cell-based. The conditions noted are these: 0.05 h, read-out: %max. A general note: cAMP levels reflect the balance of adenylyl cyclase and phosphodiesterase activity.
T1 sequence (P33032 whole entry): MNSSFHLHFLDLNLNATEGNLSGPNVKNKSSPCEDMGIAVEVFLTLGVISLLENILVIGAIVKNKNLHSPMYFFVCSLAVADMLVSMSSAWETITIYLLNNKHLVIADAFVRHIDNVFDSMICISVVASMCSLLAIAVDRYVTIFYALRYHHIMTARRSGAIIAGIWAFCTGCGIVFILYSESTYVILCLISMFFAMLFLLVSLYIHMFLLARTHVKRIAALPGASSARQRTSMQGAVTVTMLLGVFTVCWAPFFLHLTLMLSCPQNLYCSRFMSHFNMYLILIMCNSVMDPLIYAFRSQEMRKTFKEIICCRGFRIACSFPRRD

Data set [2] has as its target T2, Melanocortin receptor 3 (Homo sapiens, UniProt P41968). Briefly: Displacement of [125I]-NDP-alpha-MSH from human MC3R expressed in HEK293 cells at 10 uM after 40 mins by gamma counting method. Format: cell-based. A general note: Loss of bound radioactivity is the signal in a displacement assay; it reports binding, not function.
Data set [3] has as its target Melanocyte-stimulating hormone receptor (Homo sapiens) (UniProt Q01726). Briefly: Displacement of [125I]-NDP-alpha-MSH from human MC1R expressed in HEK293 cells at 10 uM after 40 mins by gamma counting method. Format: cell-based.
Data set [4] shares this target. Briefly: Agonist activity at human MC1R expressed in HEK293 cells assessed as induction of intracellular cAMP accumulation at 10 uM measured after 3 mins relative to MT-2. Format: functional, cell-based.
Data set [5] has as its target T2, Melanocortin receptor 3. Briefly: Agonist activity at human MC3R expressed in HEK293 cells assessed as induction of intracellular cAMP accumulation at 10 uM after 3 mins relative to MT-2. Format: cell-based. To be noted: 0.05 h, read-out: %max.
Data set [6] concerns the target T1, Melanocortin receptor 5. Briefly: Displacement of [125I]-NDP-alpha-MSH from human MC5R expressed in HEK293 cells at 10 uM after 40 mins by gamma counting method. It is filed as cell-based.
The test system of data set [7] is Anolis carolinensis. Briefly: Induction of pigmentation effect in lizard at 2 ug/g, ip at 24 hrs post dose. It is filed as functional, organism-based.
The test system of data set [8] is Anolis carolinensis. Briefly: Induction of pigmentation effect in lizard at 2 ug/g, ip at 1 min post dose. It is filed as functional, organism-based.
Data set [9] has as its target T3, Melanocortin receptor 4 (Homo sapiens, UniProt P32245). Briefly: Displacement of [125I]-NDP-alpha-MSH from human MC4R expressed in HEK293 cells at 10 uM after 40 mins by gamma counting method. Format: cell-based.
For data set [10], the target named is Melanocyte-stimulating hormone receptor (Homo sapiens) (UniProt Q01726). Briefly: Displacement of [125I]-NDP-alpha-MSH from human MC1R expressed in HEK293 cells after 40 mins by gamma counting method. Format: cell-based.
Melanocyte-stimulating hormone receptor (Homo sapiens), sequence (Q01726 whole entry, looked up): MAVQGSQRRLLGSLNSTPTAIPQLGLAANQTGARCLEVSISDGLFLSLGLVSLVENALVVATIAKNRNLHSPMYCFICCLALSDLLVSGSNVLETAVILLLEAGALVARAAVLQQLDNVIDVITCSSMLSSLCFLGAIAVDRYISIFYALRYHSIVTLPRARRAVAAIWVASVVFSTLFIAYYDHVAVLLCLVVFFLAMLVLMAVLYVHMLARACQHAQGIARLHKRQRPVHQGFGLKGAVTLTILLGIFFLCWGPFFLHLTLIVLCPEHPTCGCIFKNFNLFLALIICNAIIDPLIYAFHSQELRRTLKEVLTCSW
Data set [11] has as its target T3, Melanocortin receptor 4. Briefly: Agonist activity at human MC4R expressed in HEK293 cells assessed as induction of intracellular cAMP accumulation at 10 uM after 3 mins relative to MT-2. It is filed as cell-based. To be noted: 0.05 h, read-out: %max.
Data set [12] concerns the target T1, Melanocortin receptor 5. Briefly: Agonist activity at human MC5R expressed in HEK293 cells assessed as induction of intracellular cAMP accumulation after 3 mins. The conditions noted are these: hek293, 0.05 h. Format: cell-based.

T2 sequence (P41968 whole entry): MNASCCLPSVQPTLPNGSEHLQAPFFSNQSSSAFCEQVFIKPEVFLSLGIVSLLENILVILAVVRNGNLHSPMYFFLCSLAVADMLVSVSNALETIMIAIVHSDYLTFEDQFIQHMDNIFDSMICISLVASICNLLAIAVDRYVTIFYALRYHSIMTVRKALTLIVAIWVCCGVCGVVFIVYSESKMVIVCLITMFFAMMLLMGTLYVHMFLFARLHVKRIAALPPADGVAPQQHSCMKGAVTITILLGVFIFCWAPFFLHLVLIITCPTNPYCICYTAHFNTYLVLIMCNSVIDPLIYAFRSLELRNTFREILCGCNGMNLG
T3 sequence (P32245 whole entry): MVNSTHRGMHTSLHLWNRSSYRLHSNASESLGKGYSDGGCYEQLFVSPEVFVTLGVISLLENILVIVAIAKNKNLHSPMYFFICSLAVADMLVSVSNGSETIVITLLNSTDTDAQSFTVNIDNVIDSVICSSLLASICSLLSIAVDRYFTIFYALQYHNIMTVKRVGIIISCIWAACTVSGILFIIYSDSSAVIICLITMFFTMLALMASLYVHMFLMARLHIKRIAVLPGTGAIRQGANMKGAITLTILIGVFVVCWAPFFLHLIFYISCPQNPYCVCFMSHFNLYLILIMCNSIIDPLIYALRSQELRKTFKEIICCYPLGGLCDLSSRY

Regarding `CC(C)C[C@H](NC(=O)[C@H](Cc1ccccc1)NC(=O)[C@@H]1CCCN1C(=O)CNC(=O)[C@H](CC(C)C)NC(=O)[C@@H](NC(=O)[C@@H](N)Cc1ccc(O)cc1)C(C)C)C(=O)N[C@@H](Cc1ccccc1)C(=O)N[C@@H](CC(=O)O)C(=O)N[C@@H](CCCNC(=N)N)C(=O)N[C@@H](Cc1ccccc1)C(=O)NCC(N)=O` (H-YVLGPFLFDRFG-NH2), the Emax at 10 µM at Melanocortin receptor 5 [1] was 0%.

For the compound `CC(C)C[C@H](NC(=O)[C@@H](NC(=O)[C@@H](N)Cc1ccc(O)cc1)C(C)C)C(=O)NCC(=O)N1CCC[C@H]1C(=O)N[C@@H](Cc1ccccc1)C(=O)N[C@@H](CCCNC(=N)N)C(=O)N[C@@H](Cc1c[nH]c2ccccc12)C(=O)N[C@@H](CC(=O)O)C(=O)N[C@@H](CCCNC(=N)N)C(=O)N[C@@H](Cc1ccccc1)C(=O)NCC(N)=O` (H-YVLGPFRWDRFG-NH2), the inhibition (usually the drop in the measured response relative to a control, in per cent) at 10 µM at Melanocortin receptor 3 [2] is 100%.

`CSCC[C@H](NC(=O)[C@H](CO)NC(=O)[C@H](Cc1ccc(O)cc1)NC(=O)[C@H](CO)NC(C)=O)C(=O)N[C@@H](CCC(=O)O)CN[C@@H](Cc1cnc[nH]1)C(=O)N[C@@H](Cc1ccccc1)C(=O)N[C@@H](CCCNC(=N)N)C(=O)N[C@@H](Cc1c[nH]c2ccccc12)C(=O)NCC(=O)N[C@@H](CCCCN)C(=O)N1CCC[C@H]1C(=O)N[C@H](C(N)=O)C(C)C` displayed an inhibition in data set [3] of 100%. Also, the %max in data set [4] stood at 100%.

Turning to `CC(C)C[C@H](NC(=O)[C@H](Cc1ccccc1)NC(=O)[C@H](Cc1cnc[nH]1)NC(=O)CNC(=O)[C@H](CC(C)C)NC(=O)[C@@H](NC(=O)[C@@H](N)Cc1ccc(O)cc1)C(C)C)C(=O)N[C@@H](Cc1c[nH]c2ccccc12)C(=O)N[C@@H](CC(=O)O)C(=O)N[C@@H](CCCNC(=N)N)C(=O)N[C@@H](Cc1ccccc1)C(=O)NCC(N)=O` (H-YVLGHFLWDRFG-NH2), the inhibition in [3] was determined as 100%. Moreover, at Melanocortin receptor 3 [5], the Emax at 10 µM came to 0%. In addition, the inhibition at 10 µM at Melanocortin receptor 5 [6] was 0%.

In data set [3], `CC(C)C[C@H](NC(=O)[C@H](Cc1ccccc1)NC(=O)[C@H](Cc1cnc[nH]1)NC(=O)CNC(=O)[C@H](CC(C)C)NC(=O)[C@@H](NC(=O)[C@@H](N)Cc1ccc(O)cc1)C(C)C)C(=O)N[C@@H](Cc1ccccc1)C(=O)N[C@@H](CC(=O)O)C(=O)N[C@@H](CCCNC(=N)N)C(=O)N[C@@H](Cc1ccccc1)C(=O)NCC(N)=O` (H-YVLGHFLFDRFG-NH2) registered an inhibition of 100%. Also, the result in the data set on Anolis carolinensis [7] was inactive. At Melanocortin receptor 5 [6], this compound displayed an inhibition at 10 µM of 0%. For the same compound, the outcome with Anolis carolinensis [8] was Active.

As to `CC(C)C[C@H](NC(=O)[C@@H](NC(=O)[C@@H](N)Cc1ccc(O)cc1)C(C)C)C(=O)NCC(=O)N[C@@H](Cc1cnc[nH]1)C(=O)N[C@@H](Cc1ccccc1)C(=O)N[C@@H](CCCNC(=N)N)C(=O)N[C@@H](Cc1c[nH]c2ccccc12)C(=O)N[C@@H](CC(=O)O)C(=O)N[C@@H](CCCNC(=N)N)C(=O)N[C@@H](Cc1ccccc1)C(=O)NCC(N)=O`, the Emax at 10 µM at Melanocortin receptor 5 [1] worked out at 0%. The compound also showed an inhibition at 10 µM on Melanocortin receptor 4 [9] of 100%.

In the case of `CCCC[C@H](NC(=O)[C@@H](NC(=O)[C@H](Cc1ccc(O)cc1)NC(C)=O)C(C)C)C(=O)NCC(=O)N[C@@H](Cc1cnc[nH]1)C(=O)N[C@H](Cc1ccccc1)C(=O)N[C@@H](CCCNC(=N)N)C(=O)N[C@@H](Cc1c[nH]c2ccccc12)C(=O)N[C@@H](CC(=O)O)C(=O)N[C@@H](CCCNC(=N)N)C(=O)N[C@@H](Cc1ccccc1)C(=O)NCC(N)=O`, the inhibition at 10 µM at Melanocortin receptor 4 [9] was 100%.

In data set [10], `CC(C)C[C@H](NC(=O)[C@@H](NC(=O)[C@@H](N)Cc1ccc(O)cc1)C(C)C)C(=O)NCC(=O)N1CCC[C@H]1C(=O)N[C@@H](Cc1ccccc1)C(=O)N[C@@H](CCCNC(=N)N)C(=O)N[C@@H](Cc1ccccc1)C(=O)N[C@@H](CC(=O)O)C(=O)N[C@@H](CCCNC(=N)N)C(=O)N[C@@H](Cc1ccccc1)C(=O)NCC(N)=O` (H-YVLGPFRFDRFG-NH2) yielded an inhibition of 0%. Also, the Emax at 10 µM at Melanocortin receptor 5 [1] and at Melanocortin receptor 3 [5] was 0% throughout. At Melanocortin receptor 4 [9], this compound displayed an inhibition at 10 µM of 0%.

Regarding `CC(C)C[C@H](NC(=O)[C@H](Cc1ccccc1)NC(=O)[C@@H]1CCCN1C(=O)CNC(=O)[C@H](CC(C)C)NC(=O)[C@@H](NC(=O)[C@@H](N)Cc1ccc(O)cc1)C(C)C)C(=O)N[C@@H](Cc1c[nH]c2ccccc12)C(=O)N[C@@H](CC(=O)O)C(=O)N[C@@H](CCCNC(=N)N)C(=O)N[C@@H](Cc1ccccc1)C(=O)NCC(N)=O` (H-YVLGPFLWDRFG-NH2), the Emax at 10 µM at Melanocortin receptor 5 [1] and at Melanocortin receptor 4 [11] was 0% throughout. The compound further had an inhibition at 10 µM on Melanocortin receptor 5 [6] of 32%.

For the compound `CSCC[C@H](NC(=O)[C@@H](NC(=O)[C@@H](N)Cc1ccc(O)cc1)C(C)C)C(=O)NCC(=O)N[C@@H](Cc1cnc[nH]1)C(=O)N[C@@H](Cc1ccccc1)C(=O)N[C@@H](CCCNC(=N)N)C(=O)N[C@@H](Cc1c[nH]c2ccccc12)C(=O)N[C@@H](CC(=O)O)C(=O)N[C@@H](CCCNC(=N)N)C(=O)N[C@@H](Cc1ccccc1)C(=O)NCC(N)=O`, the Emax at 10 µM at Melanocortin receptor 4 [11] worked out at 76%. The compound also gave an inhibition at 10 µM at Melanocortin receptor 4 [9] of 100%.

`CCCC[C@H](NC(=O)[C@@H](NC(=O)[C@@H](N)Cc1ccc(O)cc1)C(C)C)C(=O)NCC(=O)N[C@@H](Cc1c[nH]cn1)C(=O)N[C@H](Cc1ccc2ccccc2c1)C(=O)N[C@@H](CCCN=C(N)N)C(=O)NC(Cc1c[nH]c2ccccc12)C(=O)N[C@@H](CC(=O)O)C(=O)N[C@@H](CCCN=C(N)N)C(=O)N[C@@H](Cc1ccccc1)C(=O)NCC(N)=O` (stereo in doubt) yielded an inhibition in data set [3] of 100%. Further, on Melanocortin receptor 5 [12], the Activity stood at 0%. Also, in [4], the %max was 70%. Besides, the Emax at 10 µM at Melanocortin receptor 5 [1] and on Melanocortin receptor 3 [5] was 6% throughout. The inhibition at 10 µM at Melanocortin receptor 3 [2], at Melanocortin receptor 5 [6] and on Melanocortin receptor 4 [9] was 100% each time.
